Source: PMC3671792 (Biochemical Journal, 2013)

Key:
[1] = biological target: T1, ZmCK2α (Zea mays, UniProt P28523); conditions: 25 uM ATP, 10 mM MgCl2, pH 7.5, 30 °C; labelled compound; GST-Rh2b phosphorylated, GST-AMA1 not
T1 construct: gene ACK2

[2] = biological target: T2, MmPKAc (Mus musculus, UniProt P05132); conditions: 25 uM ATP, 10 mM MgCl2, pH 7.5, 30 °C; labelled compound; GST-AMA1 phosphorylated, GST-Rh2b not
T2 construct: gene Prkaca

[3] = biological target: T3, PfCK2 α (CK2–HA, immunoprecipitated) (Plasmodium falciparum, UniProt Q8IIR9); test: phosphorylation of GST-Rh2b CPD by immunoprecipitated CK2-HA, phospho-specific Western blot; assay type: biochemical; conditions: 25 uM ATP, 10 mM MgCl2, pH 7.5, 30 °C; protein substrate GST-Rh2b CPD; kinase on beads
T3 construct: gene PF3D7_1108400; full coding region with C-terminal 3xHA tag, overexpressed episomally (crt promoter) in 3D7 parasites, immunoprecipitated on anti-HA/Protein G beads, ~42 kDa band; endogenous beta1/beta2 subunits could co-precipitate
T3 sequence (Q8IIR9 entry or part of it): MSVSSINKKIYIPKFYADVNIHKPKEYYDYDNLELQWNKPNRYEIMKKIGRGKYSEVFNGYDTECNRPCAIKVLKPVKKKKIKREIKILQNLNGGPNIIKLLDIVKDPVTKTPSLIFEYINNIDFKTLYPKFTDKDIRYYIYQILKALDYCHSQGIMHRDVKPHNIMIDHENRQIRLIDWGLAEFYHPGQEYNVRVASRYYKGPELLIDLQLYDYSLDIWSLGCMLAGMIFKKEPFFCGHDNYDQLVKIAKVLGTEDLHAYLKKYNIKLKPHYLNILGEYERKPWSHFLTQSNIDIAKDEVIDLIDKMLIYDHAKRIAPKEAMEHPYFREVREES

T1 sequence (P28523 whole entry): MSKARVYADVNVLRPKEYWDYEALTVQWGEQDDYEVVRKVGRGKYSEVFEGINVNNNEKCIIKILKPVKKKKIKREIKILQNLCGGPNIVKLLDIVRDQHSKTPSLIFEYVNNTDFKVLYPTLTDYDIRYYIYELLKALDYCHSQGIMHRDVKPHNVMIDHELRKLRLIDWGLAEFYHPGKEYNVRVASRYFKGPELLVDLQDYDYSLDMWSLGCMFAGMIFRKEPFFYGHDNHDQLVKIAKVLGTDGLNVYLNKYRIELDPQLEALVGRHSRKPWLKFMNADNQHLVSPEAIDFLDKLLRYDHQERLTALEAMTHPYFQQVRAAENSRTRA

| Compound | in vitro kinase assay with GST-Rh2b CPD, [γ-32P]ATP [1] | in vitro kinase assay with GST-AMA1 CPD, [γ-32P]ATP [2] | inhibition (qualitative) [3] |
| --- | --- | --- | --- |
| Nc1ncnc2c1ncn2[C@@H]1O[C@H](COP(=O)(O)OP(=O)(O)OP(=O)(O)O)[C@@H](O)[C@H]1O [ATP] | the enzyme was able to phosphorylate GST–Rh2b | Although MmPKAc phosphorylated AMA1–GST, it showed no reactivity against GST–Rh2b |  |
| O=C(O)/C=C/c1cc(Br)c(Br)c(Br)c1Br [TBCA] |  |  | sensitive to heparin treatment (Figure 4E) and to increasing amounts of TBCA (Figure 4F) |
